Experimental data reported in US7067517B2 (priority 2001, dated 2006).
Like-named read-outs stand apart in the source and are kept apart here.

Legend:
[1] = target: T1, Hormone-sensitive lipase (HSL) (Homo sapiens, UniProt Q05469); assay: biochemical; settings: for activity at 10 µM: read-out: Test 3190.1 HSL_FL % ACTIVITY All
T1 sequence (Q05469 1-1076): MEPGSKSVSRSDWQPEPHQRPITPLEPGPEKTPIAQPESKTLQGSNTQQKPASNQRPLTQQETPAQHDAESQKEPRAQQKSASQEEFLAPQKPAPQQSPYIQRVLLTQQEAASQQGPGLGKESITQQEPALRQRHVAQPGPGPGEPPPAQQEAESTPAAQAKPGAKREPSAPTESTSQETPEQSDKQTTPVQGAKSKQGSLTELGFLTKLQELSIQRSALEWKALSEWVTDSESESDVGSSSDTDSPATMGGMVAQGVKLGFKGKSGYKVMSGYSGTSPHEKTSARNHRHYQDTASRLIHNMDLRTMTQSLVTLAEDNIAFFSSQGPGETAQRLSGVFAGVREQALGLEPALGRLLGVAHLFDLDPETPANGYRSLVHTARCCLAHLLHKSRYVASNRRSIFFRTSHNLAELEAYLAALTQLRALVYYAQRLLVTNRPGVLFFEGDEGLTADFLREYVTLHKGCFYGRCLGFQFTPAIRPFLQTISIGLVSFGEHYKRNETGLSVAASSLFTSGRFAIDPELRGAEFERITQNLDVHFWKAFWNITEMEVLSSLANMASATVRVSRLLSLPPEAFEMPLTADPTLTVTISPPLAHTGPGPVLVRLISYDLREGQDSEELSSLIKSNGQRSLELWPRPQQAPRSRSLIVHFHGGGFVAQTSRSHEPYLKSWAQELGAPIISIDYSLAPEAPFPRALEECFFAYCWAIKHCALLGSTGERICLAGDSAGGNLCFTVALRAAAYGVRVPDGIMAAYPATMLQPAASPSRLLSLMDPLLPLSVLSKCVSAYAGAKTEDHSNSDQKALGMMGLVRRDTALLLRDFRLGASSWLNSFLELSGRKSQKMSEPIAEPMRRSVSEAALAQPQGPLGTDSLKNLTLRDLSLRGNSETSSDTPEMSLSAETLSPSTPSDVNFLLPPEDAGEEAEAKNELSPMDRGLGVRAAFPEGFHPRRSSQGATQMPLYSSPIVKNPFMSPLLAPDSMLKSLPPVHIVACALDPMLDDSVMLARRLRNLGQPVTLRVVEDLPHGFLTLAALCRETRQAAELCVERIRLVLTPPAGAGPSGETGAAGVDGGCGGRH
Method: Materials. The Hormone-sensitive lipase was provided by Dr. Cecilia Holm, from Lund University Sweden or produced and purified by Novo Nordisk (NN) using the reagents and protocols used by Dr. Holm. […] All other reagents are of commercial grade and obtained from various commercial sources.
BSA is added as product receptor. The transfer of the fluorochrome from the lipid phase to the water (BSA) phase changes the fluorescent properties of the fluorochrome. The changes can be monitored on a fluorimeter with an excitation wavelength of 450 nm and an emission wavelength of 545 nm.
Compound and HSL (20 μL compound, 10 μL enzyme and 70 μL PED-BSA buffer) is pre-incubated for 30 min at 25° C. before addition of substrate (100 μL). Amount of formed product is measured after 120 min incubation at 37° C.

[2] = target: T1, Hormone-sensitive lipase (HSL); assay: biochemical; format: biochemical; settings: 10 μM concentration; percent activity relative to an un-inhibited sample (no compound)
Source text: (§1) Materials. The Hormone-sensitive lipase was provided by Dr. Cecilia Holm, from Lund University Sweden or produced and purified by Novo Nordisk (NN) using the reagents and protocols used by Dr. Holm. The substrates used are: ^3H-labeled triolein (TO) from Amersham, Buckinghamshire, U.K. cat No. TRA191; 5–20 Ci/mmol dissolved in toluene, triolein (Sigma, Cat. No. T-1740), fluorochrome-labeled triacylglyceride (cis-octadec-9-enoic acid 2-[12-(7-nitrobenzo[1,2,5]oxadiazol-4-ylamino)dodecanoyloxy]-1-cis-octadec-9-enoyloxymethyl-ethyl ester) prepared by Novo Nordisk (NN) by conventional methods, and 1,3-(di[^3H]-stearin), 2-(PEG-Boitin)glycerol prepared in collaboration with Amersham Pharmacia Biotech, UK and described in WO 01/073442. Phosphatidyl choline (PC) and phosphatidyl inositol (PI) are from Sigma (St Luis Mo. cat. Nos. P-3556 and P-5954 respectively). All other reagents are of commercial grade and obtained from various commercial sources.
3180.2: Assay for determination of percent inhibition by compound at 10 μM concentration.
A lipid emulsion with ^3H-Triolein and phospholipid is used as substrate with a standard cencentration of highly purified HSL. BSA is added as product receptor. The substrate is prepared as follows:
30 μl PC:PI (20 mg/ml solution of PC:PI 3:1 prepared in chloroform)+128 μl cold TO+15 μl ^3H-TO are mixed and then evaporated under a gentle stream of N2 followed by 20–30 minutes in a Speedvac to ensure the absence of residual solvent.
Compound and HSL are incubated for 30 min at 25° C. before addition of substrate. Reaction is stopped after 30 min at 25° C. by adding a mixture of methanol, chloroform and heptane at high pH. Formed product is separated from substrate by phase separation.
Results are given as percent activity relative to an un-inhibited sample (no compound).

[3] = target: T1, Hormone-sensitive lipase (HSL); assay: Test 2848.2: high-volume screening assay, para-nitrophenyl butyrate (p-NPB) substrate; format: biochemical; settings: UV-abs 405 nm, 20 min room temp, % Eff (% Inhibition)
Source text: as §1
2848.2: This high-volume screening assay uses para-nitrophenyl butyrate (p-NPB) as substrate for HSL. HSL cleaves p-NPB and the reaction is monitored as an increase in the concentration of para-nitrophenol (p-NP). p-NP can be monitored as an increase in UV-absorbance at 405 nm. The reaction is carried out at room-temp. for 20 min. The action is not stopped, but instead UV-abs is measured at a fixed time (20 min.) Due to autohydrolysis of the substrate the reaction is read at t=0 min. too and t=20 min. and the increase in Abs is calculated as the difference between the two readings. When a compound that inhibits HSL is present, it results in a relative decrease in UV-absorbance. % Eff(% Inhibition)=(S−S0Eff)/(SmaxEff−S0Eff)×100 Where S=signal in UV-abs., S0Eff=assaybuffer alone, SmaxEff=Assaybuffer with the lipase inhibitor.

[4] = 10 μM sample concentration, percent activity relative to a non-inhibited sample (no compound)

Compound | activity at 10 µM [1] | Test 2848.2 HSL % Inhibition All [3] | also measured
CN(C(=O)Oc1ccc(OC(C)(C)C)cc1)c1ccccc1 [Example 11, Methyl-phenyl-carbamic acid 4-tert-butoxy-phenyl ester] | 17% |  | 
CN(C(=O)Oc1ccc(OC(F)(F)C(F)(F)F)cc1)c1ccccc1 [Example 20] |  |  | Test 3190.1 HSL_FL % ACTIVITY All [1, 4]: 51%
CN(C(=O)Oc1ccc(-c2ccc(Br)cc2)cc1)c1ccccc1 [Example 24, Methyl-phenyl-carbamic acid 4′-bromo-biphenyl-4-yl-ester] | 30% |  | 
COc1ccc(-c2c(C)c3ccc(OC(=O)N(C)c4ccccc4)cc3oc2=O)cc1 [Example 46, Methyl-phenyl-carbamic acid 3-(4-methoxy-phenyl)-4-methyl-2-oxo-2H-chromen-7-yl ester] | 43% |  | 
Cc1c(-c2ccccc2)c(=O)oc2cc(OC(=O)N(C)c3ccccc3)ccc12 [Example 47, Methyl-phenyl-carbamic acid 4-methyl-2-oxo-3-phenyl-2H-chromen-7-yl ester] | 42% |  | 
COc1ccc(OC)c(-c2c(C)c3ccc(OC(=O)N(C)c4ccccc4)cc3oc2=O)c1 [Example 48, Methyl-phenyl-carbamic acid 3-(2,5-dimethoxy-phenyl)-4-methyl-2-oxo-2H-chromen-7-yl ester] | 15% |  | 
CCN(C(=O)Oc1ccc(Oc2ccc(C(F)(F)F)cc2)cc1)c1ccccc1 [Example 54, Ethyl-phenyl-carbamic acid 4-(4-trifluoromethyl-phenoxy)-phenyl ester] |  |  | activity at 10 µM [1, 4]: 52%
CN(C(=O)Oc1ccc(Oc2ccc(C(F)(F)F)cn2)cc1)C1CCCCC1 [Example 59, Cyclohexyl-methyl-carbamic acid 4-(5-trifluoromethyl-pyridin-2-yloxy)-phenyl ester] | 16% |  | 
O=C(Oc1ccc(Oc2ccc(C(F)(F)F)cn2)cc1)N1CCc2ccccc21 [Example 62, 2,3-Dihydro-indole-1-carboxylic acid 4-(5-trifluoromethyl-pyridin-2-yloxy)-phenyl ester] |  |  | activity at 10 µM [1, 4]: 88%
Cc1c(Cc2ccccc2)c(=O)oc2cc(OC(=O)N3CCCc4ccccc43)ccc12 [Example 73, 3,4-Dihydro-2H-quinoline-1-carboxylic acid 3-benzyl-4-methyl-2-oxo-2H-chromen-7-yl ester] |  |  | activity at 10 µM [1, 4]: 39%
COc1ccc(OC)c(-c2c(C)c3ccc(OC(=O)N4CCCc5ccccc54)cc3oc2=O)c1 [Example 81, 3,4-Dihydro-2H-quinoline-1-carboxylic acid 3-(2,5-dimethoxy-phenyl)-4-methyl-2-oxo-2H-chromen-7-yl ester] |  |  | activity at 10 µM [1, 4]: 36%
O=C(Oc1ccc(Oc2c(Cl)cncc2Cl)cc1)N1CCOCC1 [Example 85, Morpholine-4-carboxylic acid 4-(3,5-dichloro-pyridin-4-yloxy)-phenyl ester] |  |  | activity at 10 µM [1, 4]: 88%
CC(C)(C)Oc1ccc(OC(=O)N2CCOCC2)cc1 [Example 87, Morpholine-4-carboxylic acid 4-tert-butoxy-phenyl ester] |  |  | activity at 10 µM [1, 4]: 48%; melting point: 128.8 to 129.5 °C
O=C(Oc1ccc(Oc2ccc3c(C(F)(F)F)cc(C(F)(F)F)nc3n2)cc1)N1CCOCC1 [Example 90, Morpholine-4-carboxylic acid 4-(5,7-bis-trifluoromethyl-[1,8]naphthypyridin-2-yloxy)-phenyl ester] |  |  | Test 3190.1 HSL_FL % ACTIVITY All [1, 4]: 24%
Cc1c(Cc2ccccc2)c(=O)oc2cc(OC(=O)N3CCOCC3)ccc12 [Example 92] |  |  | Test 3180.2 HSL % ACTIVITY All [2]: 62%
O=C(Nc1ccc(Cl)cc1)n1nc(-c2ccc(Cl)cc2)cc1CCCO [Example 126, N-(4-Chlorophenyl)-3-(4-chlorophenyl)-5-(3-hydroxypropyl)-pyrazole-1-carboxamide] |  | 33% | 
O=C(NCCc1ccccc1)n1nc(-c2ccc(Oc3ccccc3)cc2)cc1N1CCOCC1 [Example 127, 5-Morpholin-4-yl-3-(4-phenoxyphenyl)-pyrazole-1-carboxylic acid phenethylamide] |  | 58.7% | 
O=C(Nc1ccccc1)n1ncc(S(=O)(=O)c2ccc(Cl)cc2)c1-c1ccc(Cl)cc1 [Example 128, N-Phenyl-4-(4-chlorobenzenesulfonyl)-5-(4-chlorophenyl)-pyrazole-1-carboxamide] |  | 33.8% | 
O=C(Nc1ccc(Cl)c(Cl)c1)n1c(-c2ccccc2)nc2ccccc21 [Example 129, N-(3,4-Dichlorophenyl)-2-phenyl-benzimidazole-1-carboxamide] |  | 27% | 
CC(C)Sc1nnc(OC(=O)N(C)C)n1-c1cccc(C(F)(F)F)c1 [Example 130, Dimethyl-carbamic acid 5-isopropylsulfanyl-4-(3-trifluoromethyl-phenyl)-4H-[1,2,4]triazol-3-yl ester] |  | 30.1% | 
CN(C)C(=O)Oc1c(-c2ccccc2)cn(Cc2ccccc2)c(=O)c1-c1ccccc1 [Example 131, Dimethyl carbamic acid 1-benzyl-2-oxo-3,5-diphenyl-1,2-dihydro-pyridin-4-yl ester] |  | 21.6% | 
COc1ccc2c(OC(=O)N(C)C)cc(=O)n(C)c2c1 [Example 132, Dimethyl-carbamic acid 7-methoxy-1-methyl-2-oxo-1,2-dihydro-quinolin-4-yl ester] |  | 19.6% | 
CN(C(=O)On1ccnn1)c1ccccc1 [Example 144, Methyl-phenyl-carbamic acid [1,2,3]triazol-1-yl ester] | 25% |  | melting point: 105 to 106 °C
